From patent publication US10160747B2, “Compounds and methods for kinase modulation, and indications therefor” (Plexxikon Inc., priority 2016, dated 2018) come the findings set out here.

For assay [1], the target named is T1, FLT3-D835Y (Homo sapiens, UniProt P36888, D835Y).
T1 construct: purchased Invitrogen PV3967
T1 sequence (P36888 27-993 D835Y): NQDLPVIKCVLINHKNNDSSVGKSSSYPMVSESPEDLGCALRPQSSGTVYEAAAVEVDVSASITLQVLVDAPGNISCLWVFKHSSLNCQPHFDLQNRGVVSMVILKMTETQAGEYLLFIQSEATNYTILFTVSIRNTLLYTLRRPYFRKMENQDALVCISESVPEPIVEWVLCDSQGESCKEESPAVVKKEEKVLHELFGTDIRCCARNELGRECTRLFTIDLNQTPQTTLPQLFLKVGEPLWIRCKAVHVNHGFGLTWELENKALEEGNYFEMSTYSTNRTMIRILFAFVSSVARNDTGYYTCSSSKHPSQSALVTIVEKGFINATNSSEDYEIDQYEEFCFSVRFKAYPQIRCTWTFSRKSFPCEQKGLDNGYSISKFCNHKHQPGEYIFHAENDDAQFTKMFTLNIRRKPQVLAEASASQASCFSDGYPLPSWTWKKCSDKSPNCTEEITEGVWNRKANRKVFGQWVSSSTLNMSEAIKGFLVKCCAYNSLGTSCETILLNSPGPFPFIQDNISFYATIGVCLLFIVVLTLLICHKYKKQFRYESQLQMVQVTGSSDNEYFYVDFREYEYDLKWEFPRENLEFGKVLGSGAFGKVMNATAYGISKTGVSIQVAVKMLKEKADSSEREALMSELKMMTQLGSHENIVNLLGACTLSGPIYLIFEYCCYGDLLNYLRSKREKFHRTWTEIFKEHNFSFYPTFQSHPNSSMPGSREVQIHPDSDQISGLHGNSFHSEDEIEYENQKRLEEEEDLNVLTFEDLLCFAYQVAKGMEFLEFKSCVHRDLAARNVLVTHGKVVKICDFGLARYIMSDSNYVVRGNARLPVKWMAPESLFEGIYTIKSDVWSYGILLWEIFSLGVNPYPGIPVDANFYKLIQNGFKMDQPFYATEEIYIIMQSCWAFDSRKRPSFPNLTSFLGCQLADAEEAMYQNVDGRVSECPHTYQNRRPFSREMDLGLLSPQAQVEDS
Kind of assay: FLT3-D835Y recombinant enzyme kinase assay (AlphaScreen). The class given is biochemical. To be noted: 8 pt, GMean. In a few lines: (§1)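 IC50 values come from AlphaScreen proximity signal: phosphorylated biotin-poly(Glu4-Tyr) (30 nM) bridges streptavidin donor and anti-phosphotyrosine PY20 acceptor beads. Enzyme reactions ran at 100 μM ATP for c-KIT versus 10 μM for both FLT3 mutants (ITD, D835Y); beads added in stop buffer, room temperature.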
On the technique in general: Bead proximity is the source of the signal in Alpha formats.

The target in assay [2] is T2, c-KIT (Homo sapiens, UniProt P10721).
T2 construct: purchased Millipore 14-559K
Kind of assay: c-KIT recombinant enzyme kinase assay (AlphaScreen). The class given is biochemical. To be noted: 100 ATP, 8 pt. In a few lines:
as §1

T2 sequence (P10721 26-976): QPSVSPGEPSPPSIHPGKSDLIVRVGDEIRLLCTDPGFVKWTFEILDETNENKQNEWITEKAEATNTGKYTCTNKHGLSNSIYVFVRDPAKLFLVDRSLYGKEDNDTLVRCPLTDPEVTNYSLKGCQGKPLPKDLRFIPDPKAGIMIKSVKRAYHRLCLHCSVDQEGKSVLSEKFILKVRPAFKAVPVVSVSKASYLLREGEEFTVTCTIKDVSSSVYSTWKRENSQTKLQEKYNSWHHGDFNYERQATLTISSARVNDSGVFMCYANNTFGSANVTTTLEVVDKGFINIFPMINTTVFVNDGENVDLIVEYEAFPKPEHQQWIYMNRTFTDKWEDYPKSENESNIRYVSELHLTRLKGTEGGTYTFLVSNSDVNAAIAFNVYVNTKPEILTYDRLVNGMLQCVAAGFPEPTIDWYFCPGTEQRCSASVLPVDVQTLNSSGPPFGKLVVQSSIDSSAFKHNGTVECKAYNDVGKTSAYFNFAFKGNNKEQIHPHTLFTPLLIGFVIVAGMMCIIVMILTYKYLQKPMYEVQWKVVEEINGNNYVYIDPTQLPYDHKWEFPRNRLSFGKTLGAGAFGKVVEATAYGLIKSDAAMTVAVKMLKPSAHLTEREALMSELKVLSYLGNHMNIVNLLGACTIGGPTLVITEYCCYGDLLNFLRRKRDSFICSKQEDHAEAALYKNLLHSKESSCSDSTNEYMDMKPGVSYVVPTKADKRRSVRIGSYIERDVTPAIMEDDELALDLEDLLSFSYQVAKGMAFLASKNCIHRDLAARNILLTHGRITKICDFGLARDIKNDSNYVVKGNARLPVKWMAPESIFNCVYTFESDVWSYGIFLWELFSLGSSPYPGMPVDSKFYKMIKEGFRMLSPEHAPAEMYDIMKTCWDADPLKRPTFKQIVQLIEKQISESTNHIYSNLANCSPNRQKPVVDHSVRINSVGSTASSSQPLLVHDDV

One may read the IC50 as the concentration needed to halve the response being measured. Take `CCn1cc(Nc2ncc(-c3ccc(CC(=O)Nc4cnc(Cl)c(C(F)(F)F)c4)c(F)c3)cn2)cn1` [Compound P-0260, N-[6-chloro-5-(trifluoromethyl)-3-pyridyl]-2-[4-[2-[(1-ethylpyrazol-4-yl)amino]pyrimidin-5-yl]-2-fluoro-phenyl]acetamide]: the IC50 in assay [1] and in assay [2] was 0.0001 to 10 µM in each case.
With `COc1ncc(NC(=O)Cc2ccc(-c3cnc(Nc4cnn(C5CC5)c4)nc3)cc2F)cc1C(F)(F)F` [Compound P-0241, 2-[4-[2-[(1-cyclopropylpyrazol-4-yl)amino]pyrimidin-5-yl]-2-fluoro-phenyl]-N-[6-methoxy-5-(trifluoromethyl)-3-pyridyl]acetamide], the IC50 in assay [1] and in assay [2] was 0.0001 to 10 µM in each case.
Consider `O=C(Cc1ccc(-c2cnc(Nc3cnn(C4CC4)c3)nc2)cc1)Nc1cc(C(F)(F)F)ccn1` [Compound P-0237, 2-[4-[2-[(1-cyclopropylpyrazol-4-yl)amino]pyrimidin-5-yl]phenyl]-N-[4-(trifluoromethyl)-2-pyridyl]acetamide], for which the IC50 in assay [1] and in assay [2] was 0.0001 to 10 µM each time.
Regarding `O=C(Cc1cc(F)c(-c2cnc(Nc3cnn(C(F)F)c3)nc2)cc1F)Nc1cc(C(F)(F)F)ccn1` [Compound P-0021, 2-[4-[2-[[1-(difluoromethyl)pyrazol-4-yl]amino]pyrimidin-5-yl]-2,5-difluoro-phenyl]-N-[4-(trifluoromethyl)-2-pyridyl]acetamide], the IC50 in assay [1] and in assay [2] was 0.0001 to 10 µM throughout.
`CCn1cc(Nc2ncc(-c3ccc(CC(=O)Nc4cnc(OC)c(C(F)(F)F)c4)cc3F)cn2)cn1` [Compound P-0246, 2-[4-[2-[(1-ethylpyrazol-4-yl)amino]pyrimidin-5-yl]-3-fluoro-phenyl]-N-[6-methoxy-5-(trifluoromethyl)-3-pyridyl]acetamide]: the IC50 in assay [1] and in assay [2] was 0.0001 to 10 µM in each case.
For the compound `COc1ncc(NC(=O)Cc2ccc(-c3cnc(Nc4cn[nH]c4C)nc3)cc2)cc1C(F)(F)F` [Compound P-0221, N-[6-methoxy-5-(trifluoromethyl)-3-pyridyl]-2-[4-[2-[(5-methyl-1H-pyrazol-4-yl)amino]pyrimidin-5-yl]phenyl]acetamide], the IC50 in assay [1] and in assay [2] was 0.0001 to 10 µM each time.
`CCn1cc(Nc2ncc(-c3ccc(CC(=O)Nc4ccc(C(F)(F)F)cn4)c(F)c3)cn2)cn1` [Compound P-0256, 2-[4-[2-[(1-ethylpyrazol-4-yl)amino]pyrimidin-5-yl]-2-fluoro-phenyl]-N-[5-(trifluoromethyl)-2-pyridyl]acetamide]: the IC50 in assay [1] and in assay [2] was 0.0001 to 10 µM throughout.
`COc1ncc(NC(=O)Cc2ccc(-c3cnc4[nH]c(-c5ccnc(C#N)c5)cc4c3)cc2F)cc1C(F)(F)F` [Compound P-0013, 2-[4-[2-(2-cyano-4-pyridyl)-1H-pyrrolo[2,3-b]pyridin-5-yl]-2-fluoro-phenyl]-N-[6-methoxy-5-(trifluoromethyl)-3-pyridyl]acetamide]: the IC50 in assay [1] and in assay [2] was 0.0001 to 10 µM each time.
On to `CCn1cc(Nc2ncc(-c3ccc(CC(=O)Nc4cnc(C)c(C(F)(F)F)c4)c(F)c3)cn2)cn1` [Compound P-0261, 2-[4-[2-[(1-ethylpyrazol-4-yl)amino]pyrimidin-5-yl]-2-fluoro-phenyl]-N-[6-methyl-5-(trifluoromethyl)-3-pyridyl]acetamide], for which the IC50 in assay [1] and in assay [2] was 0.0001 to 10 µM throughout.
In the case of `CC(C)(O)C#Cc1cc2cc(-c3ccc(CC(=O)Nc4cncc(C(F)(F)F)c4)cc3)cnc2[nH]1` [Compound P-0204, 2-[4-[2-(3-hydroxy-3-methyl-but-1-ynyl)-1H-pyrrolo[2,3-b]pyridin-5-yl]phenyl]-N-[5-(trifluoromethyl)-3-pyridyl]acetamide], the IC50 in assay [1] and in assay [2] was 0.0001 to 10 µM in each case.
Consider `COc1n[nH]c2ncc(-c3ccc(CC(=O)Nc4cnc(C)c(C(F)(F)F)c4)cc3)cc12` [Compound P-0218, 2-[4-(3-methoxy-1H-pyrazolo[3,4-b]pyridin-5-yl)phenyl]-N-[6-methyl-5-(trifluoromethyl)-3-pyridyl]acetamide], for which the IC50 in assay [1] and in assay [2] was 0.0001 to 10 µM each time.
Regarding `Cc1nn(C)cc1Nc1ncc(-c2ccc(CC(=O)Nc3cnc(C)c(C(F)(F)F)c3)cc2)cn1` [Compound P-0228, 2-[4-[2-[(1,3-dimethylpyrazol-4-yl)amino]pyrimidin-5-yl]phenyl]-N-[6-methyl-5-(trifluoromethyl)-3-pyridyl]acetamide], the IC50 in assay [1] and in assay [2] was 0.0001 to 10 µM in each case.
In the case of `COCCn1cc(Nc2ncc(-c3ccc(CC(=O)Nc4ccc(C(F)(F)F)cn4)c(F)c3)cn2)cn1` [Compound P-0269, 2-[2-fluoro-4-[2-[[1-(2-methoxyethyl)pyrazol-4-yl]amino]pyrimidin-5-yl]phenyl]-N-[5-(trifluoromethyl)-2-pyridyl]acetamide], the IC50 in assay [1] and in assay [2] was 0.0001 to 10 µM each time.
As to `CCn1cc(Nc2ncc(-c3ccc(CC(=O)Nc4cc(C(F)(F)F)ccn4)cc3)cn2)cn1` [Compound P-0250, 2-[4-[2-[(1-ethylpyrazol-4-yl)amino]pyrimidin-5-yl]phenyl]-N-[4-(trifluoromethyl)-2-pyridyl]acetamide], the IC50 in assay [1] and in assay [2] was 0.0001 to 10 µM in each case.
`COc1ncc(NC(=O)Cc2ccc(-c3cnc4[nH]nc(Cl)c4c3)cc2)cc1C(F)(F)F` [Compound P-0230, 2-[4-(3-chloro-1H-pyrazolo[3,4-b]pyridin-5-yl)phenyl]-N-[6-methoxy-5-(trifluoromethyl)-3-pyridyl]acetamide]: the IC50 in assay [1] and in assay [2] was 0.0001 to 10 µM in each case.
